Assay results as given in article PMC4476799, “Englerin A Agonizes the TRPC4/C5 Cation Channels to Inhibit Tumor Cell Line Proliferation” (PLoS ONE, 2015).
Like-named read-outs stand apart in the source and are kept apart here.

Tested on: cancer cell lines from the cancer cell line encyclopedia (CCLE)
Test: Cell line profiling (CLiP) proliferation experiment
Format: cell-based
Parameters: key to Compound Activity (1-inactive;2-active): 1-inactive; 2-active; ACTIVITY_AREA: scale not given here; AMAX: unit not given here
Details: for IC50: read-out: Crossing Point; for EC50: read-out: Inflection Point
Method: Compound profiling experiment and data analysis was performed as previously described. Data was imported and plotted using the Tibco Spotfire DXP application. Lines were categorized as sensitive, intermediate and refractory as follows: Amax<-40 & Inflection Point <2 ~ Sensitive, Amax>-20 & Inflection Point >10 ~ Refractory, all else were called Intermediate. Cancer Cell line HG-U133 Plus 2 data was processed and normalized as described. […] Five sets of refractory cell lines were generated from the pool of refractory cell lines trying to match the lineage composition of the set of sensitive cell lines. The limma package was used as previously described to perform the statistical comparison.

[1] = UM-UC-3 cell line, urinary_tract, transitional_cell_carcinoma
[2] = VM-CUB1 cell line, urinary_tract, transitional_cell_carcinoma
[3] = VMRC-RCW cell line, kidney, renal_cell_carcinoma
[4] = VMRC-RCZ cell line, kidney, renal_cell_carcinoma
[5] = WSU-DLCL2 cell line, haematopoietic_and_lymphoid_tissue, diffuse_large_B_cell_lymphoma
[6] = YKG1 cell line, central_nervous_system, astrocytoma_Grade_IV
[7] = Z-138 cell line, haematopoietic_and_lymphoid_tissue, mantle_cell_lymphoma
[8] = ZR-75-1 cell line, breast, ductal_carcinoma
[9] = cell line 8-MG-BA, central_nervous_system, astrocytoma_Grade_IV
[10] = cell line 697, haematopoietic_and_lymphoid_tissue, acute_lymphoblastic_leukaemia
[11] = cell line 769-P, kidney, clear_cell_renal_cell_carcinoma
[12] = cell line 786-O, kidney, clear_cell_renal_cell_carcinoma
[13] = cell line 8305C, thyroid, anaplastic_carcinoma
[14] = cell line 23132/87, stomach, adenocarcinoma

CC(C)[C@@]12C[C@@H](O)[C@@](C)(O1)[C@@H]1CC[C@@H](C)[C@H]1[C@@H]2OC(=O)/C=C/c1ccccc1 [Englerin B]
ACTIVITY_AREA [1]: 37.41
AMAX [1]: -54.71
RESPONSE [1]: INTERMEDIATE
ACTIVITY_AREA [2]: 96.55
AMAX [2]: -58.31
RESPONSE [2]: INTERMEDIATE
IC50 (VMRC-RCW (kidney)): > 30 µM
ACTIVITY_AREA [3]: 10.22
AMAX [3]: -25.65
IC50 [3]: > 30 µM
IC50 (VMRC-RCZ (kidney)): > 30 µM
ACTIVITY_AREA [4]: 26.25
AMAX [4]: -46.92
RESPONSE [4]: INTERMEDIATE
IC50 [4]: > 30 µM
IC50 (WM983B, WM-983B (skin)): > 30 µM
IC50 (WM983B, WM-983B cell line, skin, NS): > 30 µM
ACTIVITY_AREA (WM1799 cell line, skin, NS): 44.8
AMAX (WM1799 cell line, skin, NS): -38.05
RESPONSE (WM1799 cell line, skin, NS): INTERMEDIATE
IC50 (WM-88 (skin)): > 30 µM
ACTIVITY_AREA (WM-88 cell line, skin, NS): 55.16
AMAX (WM-88 cell line, skin, NS): -34.98
RESPONSE (WM-88 cell line, skin, NS): INTERMEDIATE
IC50 (WM-88 cell line, skin, NS): > 30 µM
ACTIVITY_AREA (WM-115 cell line, skin, NS): 73.29
AMAX (WM-115 cell line, skin, NS): -15.29
RESPONSE (WM-115 cell line, skin, NS): REFRACTORY
ACTIVITY_AREA (WM-266-4 cell line, skin, NS): 31.57
AMAX (WM-266-4 cell line, skin, NS): -38.36
RESPONSE (WM-266-4 cell line, skin, NS): INTERMEDIATE
ACTIVITY_AREA (WM-793 cell line, skin, NS): 26.94
AMAX (WM-793 cell line, skin, NS): -46.79
RESPONSE (WM-793 cell line, skin, NS): INTERMEDIATE
ACTIVITY_AREA (WM-983B cell line, skin, NS): 63.66
AMAX (WM-983B cell line, skin, NS): -43.12
RESPONSE (WM-983B cell line, skin, NS): INTERMEDIATE
IC50 (WM-1799, WM1799 (skin)): > 30 µM
IC50 (WM-1799, WM1799 cell line, skin, NS): > 30 µM
IC50 (WS1 (skin)): > 30 µM
IC50 (WS1, WS1 cell line, skin): > 30 µM
ACTIVITY_AREA (WS1 cell line, skin): 21.77
AMAX (WS1 cell line, skin): -26.6
RESPONSE (WS1 cell line, skin): INTERMEDIATE
ACTIVITY_AREA [5]: 47.3
AMAX [5]: -92.11
RESPONSE [5]: INTERMEDIATE
ACTIVITY_AREA (YAPC cell line, pancreas, NS): 25.5
AMAX (YAPC cell line, pancreas, NS): -44.67
RESPONSE (YAPC cell line, pancreas, NS): INTERMEDIATE
ACTIVITY_AREA [6]: 26.45
AMAX [6]: -20.02
RESPONSE [6]: INTERMEDIATE
ACTIVITY_AREA (YMB-1 cell line, breast, NS): 29.44
AMAX (YMB-1 cell line, breast, NS): -63.02
RESPONSE (YMB-1 cell line, breast, NS): INTERMEDIATE
IC50 (YMB-1 cell line, breast, NS): 21 µM
EC50 (YMB-1 cell line, breast, NS): 21 µM
ACTIVITY_AREA [7]: 90.79
AMAX [7]: -65.74
RESPONSE [7]: INTERMEDIATE
ACTIVITY_AREA [8]: 42.06
AMAX [8]: -53.16
Compound Activity (1-inactive;2-active) (call per compound): 1
Compound Activity (1-inactive;2-active) (call per compound, repeated on every line): 1
Compound Activity (1-inactive;2-active) (call printed on every cell-line row): 1
ACTIVITY_AREA [9]: 36.6
AMAX [9]: -52.73
RESPONSE [9]: INTERMEDIATE
ACTIVITY_AREA (cell line 59M, ovary, NS): 26.55
AMAX (cell line 59M, ovary, NS): -38.54
RESPONSE (cell line 59M, ovary, NS): INTERMEDIATE
IC50 (cell line 59M, ovary, NS): > 30 µM
IC50 (cell line 59M): > 30 µM
IC50 [10]: 18.6 µM
EC50 [10]: 18.6 µM
ACTIVITY_AREA [11]: 13.6
AMAX [11]: -49.16
RESPONSE [11]: INTERMEDIATE
ACTIVITY_AREA [12]: 46.1
AMAX [12]: -38.05
RESPONSE [12]: INTERMEDIATE
Compound Activity (1-inactive;2-active) (cell line 1321N1 (central_nervous_system, astrocytoma)): 1
ACTIVITY_AREA [13]: 19.13
AMAX [13]: -42.05
RESPONSE [13]: INTERMEDIATE
ACTIVITY_AREA [14]: 152.84
AMAX [14]: -72.44
RESPONSE [14]: INTERMEDIATE
IC50 [14]: 15.3 µM
EC50 [14]: 15.3 µM
IC50 (cell line A4/Fuk, haematopoietic_and_lymphoid_tissue, diffuse_large_B_cell_lymphoma): 18.1 µM
